Holding throughout (assay type): in vivo, Gallus gallus
Experiment [1] can be described thus: Glycogen in pectoral muscle. Conditions: intra-amniotic 1 mL/egg on day 17, at hatch, mean ± SEM, n=8. As to the method: (§1) The pure resveratrol and pterostilbene were individually diluted in 18 MΩ H2O. The intra-amniotic administration followed the methodology previously described. On the 17th day of embryonic development, the eggs with viable embryos (n=60) were randomly allocated into 6 groups (n=10) with a similar weight frequency distribution. For the intra-amniotic treatment, 1 mL of solution per egg was injected into the amniotic fluid (via candling) with the aid of a 21-gauge needle. After the procedure, the injection sites were sealed with cellophane tape, and the eggs were distributed into six groups: (1) no injection; (2) 18 MΩ H2O; (3) 5% inulin; (4) 5% resveratrol; (5) 5% pterostilbene; and (6) synergistic: 4.75% resveratrol and 0.25% pterostilbene. […] The eggs were equally distributed in each incubator location to reduce possible allocation bias. Upon hatching (21 days), the hatchlings were euthanized by CO2 exposure, and the blood, liver, heart, pectoral muscle, small intestine and cecum were obtained.

A further experiment relates to Liver Ferritin. Description: Liver ferritin. The settings on record: intra-amniotic 1 mL/egg on day 17, at hatch, mean ± SEM, n=5. As to the method: as §1
In experiment [2] the test system is duodenal tissue (villi, crypts, goblet cells). Briefly: Morphometric examination of duodenal tissue. As for the experimental part:
as §1
Villus epithelium analysis was conducted as previously published. The duodenal samples were soaked in buffered formaldehyde (4% (v/v)), dehydrated, cleared and embedded in paraffin. Numerous sections were cut with a thickness of 5 μm and put on slides. The sections were deparaffinized in xylene, after which they were rehydrated in a series of graded alcohol. Finally, the slides were stained with Alcian Blue-periodic acid-Schiff and investigated under a light microscopy. The variables were assessed (light microscope, EPIX XCAP software, standard version, Olympus, Waltham, MA, USA) for the following: villus length, villus diameter, depth of crypts, goblet cell diameter, crypt goblet cell number and villus goblet cells type number (acidic, neutral or mixed). Four segments for each biological sample and five biological samples per treatment group were examined. The goblet cells were enumerated at 10 villi/sample, and the means were calculated for statistical analysis.

The test system of experiment [3] is DMT1 (Divalent metal transporter 1). Briefly: Gene expression (RT-PCR), DMT1. Conditions: at hatch, b173: compared with the other treatments and the controls, b190: comparator not stated, p<0.05. As to the method:
(§2) The pure resveratrol and pterostilbene were individually diluted in 18 MΩ H2O. The intra-amniotic administration followed the methodology previously described. On the 17th day of embryonic development, the eggs with viable embryos (n=60) were randomly allocated into 6 groups (n=10) with a similar weight frequency distribution. For the intra-amniotic treatment, 1 mL of solution per egg was injected into the amniotic fluid (via candling) with the aid of a 21-gauge needle. […]
(§3) The RNA was isolated as described previously (RNeasy Mini Kit, Qiagen Inc., Valencia, CA, USA), and 30 mg of the duodenal tissue or liver tissue (n =8) was used to extract the total RNA. […] Finally, the RNA was eluted in 50 μL of RNase-free water and quantified by absorbance at 260 and 280 nm.
(§4) RT-PCR was conducted as described. […] The cDNA content was assessed by absorbance at 260 and 280 nm, with an extinction coefficient of 33 (single-stranded DNA). Genomic DNA contamination was evaluated via a real-time RT-PCR assay for the reference gene samples [17,18,30]. […]
(§5) The procedures were performed as previously published. […] The optimal MgCl2 concentration achieved, for each reaction, an amplification plot (lowest cycle product, Cp), the uppermost fluorescence intensity and the steepest amplification slope. […]

A further experiment has as its system IL-1β. Briefly: Gene expression (RT-PCR), IL-1β. Conditions: at hatch; b175, b210: compared with the 5% inulin control group; b192: comparator not stated; p<0.05. As for the experimental part: as §2, §3, §4, §5
Another experiment relates to TNF-α. Briefly: Gene expression (RT-PCR), TNF-α. Conditions: at hatch; b175, b210: compared with the 5% inulin control group; b192: comparator not stated; p<0.05. As for the experimental part:
as §2, §3, §4, §5

Another experiment concerns AP (Aminopeptidase). Briefly: Gene expression (RT-PCR), AP. The settings on record: at hatch; b175: relative to the 18 MΩ M2O and 5% inulin control groups; b192: comparator not stated; p<0.05. As for the experimental part: as §2, §3, §4, §5
The test system of the next experiment is SI (Sucrose isomaltase). Description: Gene expression (RT-PCR), SI. Conditions: at hatch; b175: compared with the no injection and 5% inulin control groups; b192: comparator not stated; p<0.05. As to the method:
as §2, §3, §4, §5

The test system of experiment [4] is AT1R (angiotensin II receptor type I). Description: Gene expression (RT-PCR), AT1R. Conditions: intestinal and heart gene expression (FIG. 2); b176: compared with the no injection control; b192: comparator not stated; b210: between the experimental groups. As to the method: as §2, §3, §4, §5
Setting [5] is: duodenum, intra-amniotic 1 mL/egg on day 17, at hatch, mean ± SEM, n=5.
Where [6] appears, read: small intestine, intra-amniotic 1 mL/egg on day 17, at hatch, mean ± SEM, n=5.

The structures appear in SMILES notation. Marks after values point to notes of the source that are not given here.

As to `Oc1ccc(C=Cc2cc(O)cc(O)c2)cc1` [5% Resveratrol, Resveratrol], the “Glycogen (mg/g)” value in experiment [1] was 0.019 ± 0.004^a mg/g. Moreover, the “Liver Ferritin (A.U.)” value in the experiment on Liver Ferritin is listed as 0.839 ± 0.393^bc A.U. Also, in experiment [2] (setting [5]), the “Depth of Crypts (μm)” value was 63.73 ± 1.20^a μm, the “Mucus Layer Width (μm)” value is listed as 4.80 ± 0.13^d μm, the “Villus Diameter (μm)” value is given as 54.47 ± 0.70^b μm and the “Villus Length (μm)” value is on record as 294.92 ± 3.48^c μm. For the same molecule, in [2] (setting [6]), the “Crypt Goblet Cell Number” value is 10.91 ± 0.21 ^b; the “Goblet Cell Diameter (μM)” value is 7.94 ± 0.06 ^b μM; the “Villus Goblet Cell Type Number, Acidic” value is given as 10.97 ± 0.23 ^a; the “Villus Goblet Cell Type Number, Mixed” value is 0.17 ± 0.03 ^c. Moreover, the “Villus Goblet Cell Type Number, Neutral” value in [2] (setting [6]) is given as 0.00 ± 0.00 ^b. In addition, in experiment [2] (versus the controls, p<0.05), the “Duodenal villus diameter, comparison with controls” value is given as “significant increase” and the “Duodenal villus length, comparison with controls” value is listed as “significant increase”. The “DMT1 relative gene expression” value in [3] (listed as 5% resveratrol) is on record as “lowest”. Besides, the “DMT1 relative gene expression” value in [3] (listed as resveratrol) is “downregulated significantly”. Further, the IL-1β gene expression entry with IL-1β is recorded as “downregulated”. Besides, the TNF-α gene expression result with TNF-α is “downregulated”. The AP relative expression entry in the experiment on AP (Aminopeptidase) is reported as “downregulated”. Besides, the SI relative expression entry in the experiment on SI (Sucrose isomaltase) is on record as “down regulated”. In experiment [4], the AT1R gene expression result is listed as “downregulated”.

(Values after patent US20240148671A1, “METHODS FOR IMPROVING POULTRY HEALTH” (CORNELL UNIVERSITY, priority 2021, published 2024).)
